# Measured values published in article PMC5303205, “Comparative studies on the multi-component pharmacokinetics of Aristolochiae Fructus and honey-fried Aristolochiae Fructus extracts after oral administration in rats” (BMC Complementary and Alternative Medicine, 2017).
# Like-named read-outs stand apart in the source and are kept apart here.
# Experiments:
# [1] = Multi-component pharmacokinetics of AAs in rats after oral administration of AF and HAF extracts (HPLC-MS/MS of plasma); design: species or system Sprague–Dawley (SD) rats; conditions: Sprague-Dawley, rat, in vivo
# Method: An aliquot (100 μl) of rat plasma was spiked with 10.0 μL IS, and vortexed with 300 μL acetic ether for 10 s before the supernatant was transferred into centrifuge tube. The extraction was repeated with 200 μL acetic ether. The combined organic layer was evaporated to dryness under a gentle stream of nitrogen at RT. The residue was resolved in 100 μL methanol and centrifuged at 15,800 × g for 10 min. The supernatant was used for HPLC-MS/MS analysis.
# Chromatographic separation was performed by an Acquity C18 column (4.6 × 100 mm,3.5 μm) (Agilent Technologies, USA). The mobile phase was composed of water (containing 10 mM ammonium formate and formic acid, pH 3.0) (solvent A) and ACN (solvent B). The gradient profile of B was: 0–10 min, 35–38%; 10–11 min, 38– 60%; 11–17 min, 60–35%B; 17–18 min, 35%. The flow rate was kept at 0.5 mL/min. The column oven was set at 30 °C and the injection volume was 10 μL.
# The mass spectrometer was operated in the positive ion electrospray mode with multiple reaction monitoring (MRM). The optimal MS parameters were set at the following parameters: a desolvation gas temperature of 450 °C, desolvation gas flow of 10 L/min, a nebulizer gas of 40 psi and a capillary voltage of 4000 V. The mass spectrometry conditions of AA I, AA II, AA C, AA D, 7-OH AA I and IS are summarized in Additional file 1: Table S1.
# The rats were randomly divided into 6 groups (low, middle and high doses of AF and HAF; n = 6). After a week of acclimation, the animals were fasted for 12 h with free access to water. Then, AF and HAF extracts were administered to the rats. The extracts were suspended in 0.5% CMC–Na solution, and the oral doses (according to AA I in the extracts) were 3.0 mg/kg, 8.0 mg/kg and 15.0 mg/kg, respectively.
# Blood samples were collected from the ocular vein using dried heparinized tubes at 0, 0.083, 0.17, 0.33, 0.50, 0.67, 0.83, 1, 2, 4, 6, 8, 10, 12 and 24 h from the start. The animals received fluid replacement (sterile isotonic saline) after every two samplings since the fifth collecting. The samples were then immediately centrifuged at 3100 × g for 10 min. The plasma obtained was frozen and stored at –20 °C until analysis.
# All statistical analyses were performed using the SPSS 11.0 software (Chicago, USA). P values <0.05 were considered statistically significant. Pharmacokinetic analysis was performed using the proprietary DAS 3.0 software (Mathematical Pharmacology Professional Committee of China, Shanghai, China).
# After the oral administration of AF and HAF extracts, rat plasma samples were prepared and analyzed as described above. Five main AAs can be detected in rat blood with the proposed HPLC-MS/MS method. The mean pharmacokinetic parameters of five AAs in AF and HAF are summarized in Tables 4, 5 and Additional files 5, 6, 7: Tables S4-S6. The maximum concentration (C max) was the experimentally-observed value. The other pharmacokinetic parameters of the five analytes were fitted by DAS 3.0 software.
# [2] = Stability of AAs in rat plasma (QC samples, HPLC-MS/MS); assay type: in vitro ADME; conditions: n = 5; for Short-term stability (RSD/%): fresh rat plasma at room temperature for 24 h before sample preparation; for Post-preparation stability (RSD/%): prepared rat plasma samples at room temperature for 24 h; for Long-term stability (RSD/%): rat plasma stored at –20 °C for 14 days; for Freeze-thaw stability (RSD/%): rat plasma, three freeze-thaw cycles (–20 °C 24 h, thawed at room temperature)
# Method: The QC samples were assayed under several different conditions to evaluate the stability of AAs in rat plasma. The freeze-thaw stability of the analyte was determined over three freeze-thaw cycles. In each freeze-thaw cycle, the samples were frozen and stored at –20 °C for 24 h, then thawed at room temperature. To evaluate the long-term stability of AAs, the plasma samples were stored at –20 °C for 14 days. For the short-term stability, fresh plasma samples were kept at room temperature for 24 h before the sample preparation. After keeping the samples at room temperature for 24 h, post-preparation stability was tested. Stability was evaluated by comparing the mean concentration of the stored samples with the mean concentration of those prepared freshly. The stability data were acceptable when the bias was within ±15% of the actual value.
# [3] = 3 mg/kg, AF extract, low dose (3.0 mg/kg as AA I), analyte dose mg/kg: AA I 3.0, AA II 0.21, AA C 1.42, AA D 1.60, 7-OH AA I 2.33, n = 6
# [4] = 3 mg/kg, HAF extract, low dose (3.0 mg/kg as AA I), analyte dose mg/kg: AA I 3.0, AA II 0.26, AA C 1.53, AA D 1.51, 7-OH AA I 2.48, n = 6
# [5] = 8 mg/kg, AF extract, mid dose (8.0 mg/kg as AA I), analyte dose mg/kg: AA I 8.0, AA II 0.56, AA C 3.78, AA D 4.26, 7-OH AA I 6.22, n = 6
# [6] = 8 mg/kg, HAF extract, mid dose (8.0 mg/kg as AA I), analyte dose mg/kg: AA I 8.0, AA II 0.69, AA C 4.09, AA D 4.03, 7-OH AA I 6.62, n = 6
# [7] = 15 mg/kg, AF extract, high dose (15.0 mg/kg as AA I), analyte dose mg/kg: AA I 15.0, AA II 1.05, AA C 7.09, AA D 8.00, 7-OH AA I 11.66, n = 6
# [8] = 15 mg/kg, HAF extract, high dose (15.0 mg/kg as AA I), analyte dose mg/kg: AA I 15.0, AA II 1.29, AA C 7.66, AA D 7.56, 7-OH AA I 12.41, n = 6
# [9] = high QC conc ng/mL: AA I 1830, AA II 3200, AA C 2980, AA D 3680, 7-OH AA I 3280
# [10] = low QC conc ng/mL: AA I 1.83, AA II 8.00, AA C 186.3, AA D 36.8, 7-OH AA I 82.0
# [11] = middle QC conc ng/mL: AA I 457.5, AA II 400, AA C 372.5, AA D 460, 7-OH AA I 410
compound,measurement,setting,value
COc1cc(O)cc2c1cc([N+](=O)[O-])c1c(C(=O)O)cc3c(c12)OCO3 [AA D],AUC(0-inf),[1]; [3],194 ng·h/mL
same,Cmax,[1]; [3],78.5 ng/mL
same,Tmax,[1]; [3],33.6 min
same,CL/F,"[1]; 3 mg/kg, AF extract, low dose (3.0 mg/kg as AA I), analyte dose mg/kg: AA I 3.0, AA II 0.21, AA C 1.42, AA D 1.60, 7-OH AA I 2.33, n = 6, read-out: CLz/F (converted)",168 mL/min/kg
same,Vd/F,"[1]; 3 mg/kg, AF extract, low dose (3.0 mg/kg as AA I), analyte dose mg/kg: AA I 3.0, AA II 0.21, AA C 1.42, AA D 1.60, 7-OH AA I 2.33, n = 6, read-out: Vz/F",35.7 L/kg
same,half-life,"[1]; 3 mg/kg, AF extract, low dose (3.0 mg/kg as AA I), analyte dose mg/kg: AA I 3.0, AA II 0.21, AA C 1.42, AA D 1.60, 7-OH AA I 2.33, n = 6, read-out: t 1/2z (converted)",147 min
same,AUC(0-inf),[1]; [4],179 ng·h/mL
same,Cmax,[1]; [4],58.6 ng/mL
same,Tmax,[1]; [4],46.8 min
same,CL/F,"[1]; 3 mg/kg, HAF extract, low dose (3.0 mg/kg as AA I), analyte dose mg/kg: AA I 3.0, AA II 0.26, AA C 1.53, AA D 1.51, 7-OH AA I 2.48, n = 6, read-out: CLz/F (converted)",158 mL/min/kg
same,Vd/F,"[1]; 3 mg/kg, HAF extract, low dose (3.0 mg/kg as AA I), analyte dose mg/kg: AA I 3.0, AA II 0.26, AA C 1.53, AA D 1.51, 7-OH AA I 2.48, n = 6, read-out: Vz/F",30.6 L/kg
same,half-life,"[1]; 3 mg/kg, HAF extract, low dose (3.0 mg/kg as AA I), analyte dose mg/kg: AA I 3.0, AA II 0.26, AA C 1.53, AA D 1.51, 7-OH AA I 2.48, n = 6, read-out: t 1/2z (converted)",123 min
same,AUC(0-inf),[1]; [5],402 ng·h/mL
same,Cmax,[1]; [5],126 ng/mL
same,Tmax,[1]; [5],33.6 min
same,CL/F,"[1]; 8 mg/kg, AF extract, mid dose (8.0 mg/kg as AA I), analyte dose mg/kg: AA I 8.0, AA II 0.56, AA C 3.78, AA D 4.26, 7-OH AA I 6.22, n = 6, read-out: CLz/F (converted)",359 mL/min/kg
same,Vd/F,"[1]; 8 mg/kg, AF extract, mid dose (8.0 mg/kg as AA I), analyte dose mg/kg: AA I 8.0, AA II 0.56, AA C 3.78, AA D 4.26, 7-OH AA I 6.22, n = 6, read-out: Vz/F",75.7 L/kg
same,half-life,"[1]; 8 mg/kg, AF extract, mid dose (8.0 mg/kg as AA I), analyte dose mg/kg: AA I 8.0, AA II 0.56, AA C 3.78, AA D 4.26, 7-OH AA I 6.22, n = 6, read-out: t 1/2z (converted)",146 min
same,AUC(0-inf),[1]; [6],323 ng·h/mL
same,Cmax,[1]; [6],89.2 ng/mL
same,Tmax,[1]; [6],45 min
same,CL/F,"[1]; 8 mg/kg, HAF extract, mid dose (8.0 mg/kg as AA I), analyte dose mg/kg: AA I 8.0, AA II 0.69, AA C 4.09, AA D 4.03, 7-OH AA I 6.62, n = 6, read-out: CLz/F (converted)",190 mL/min/kg
same,Vd/F,"[1]; 8 mg/kg, HAF extract, mid dose (8.0 mg/kg as AA I), analyte dose mg/kg: AA I 8.0, AA II 0.69, AA C 4.09, AA D 4.03, 7-OH AA I 6.62, n = 6, read-out: Vz/F",37.8 L/kg
same,half-life,"[1]; 8 mg/kg, HAF extract, mid dose (8.0 mg/kg as AA I), analyte dose mg/kg: AA I 8.0, AA II 0.69, AA C 4.09, AA D 4.03, 7-OH AA I 6.62, n = 6, read-out: t 1/2z (converted)",138 min
same,AUC(0-inf),[1]; [7],960 ng·h/mL
same,Cmax,[1]; [7],155 ng/mL
same,Tmax,[1]; [7],38.4 min
same,CL/F,"[1]; 15 mg/kg, AF extract, high dose (15.0 mg/kg as AA I), analyte dose mg/kg: AA I 15.0, AA II 1.05, AA C 7.09, AA D 8.00, 7-OH AA I 11.66, n = 6, read-out: CLz/F (converted)",560 mL/min/kg
same,Vd/F,"[1]; 15 mg/kg, AF extract, high dose (15.0 mg/kg as AA I), analyte dose mg/kg: AA I 15.0, AA II 1.05, AA C 7.09, AA D 8.00, 7-OH AA I 11.66, n = 6, read-out: Vz/F",153 L/kg
same,half-life,"[1]; 15 mg/kg, AF extract, high dose (15.0 mg/kg as AA I), analyte dose mg/kg: AA I 15.0, AA II 1.05, AA C 7.09, AA D 8.00, 7-OH AA I 11.66, n = 6, read-out: t 1/2z (converted)",173 min
same,AUC(0-inf),[1]; [8],590 ng·h/mL
same,Cmax,[1]; [8],148 ng/mL
same,Tmax,[1]; [8],37.8 min
same,CL/F,"[1]; 15 mg/kg, HAF extract, high dose (15.0 mg/kg as AA I), analyte dose mg/kg: AA I 15.0, AA II 1.29, AA C 7.66, AA D 7.56, 7-OH AA I 12.41, n = 6, read-out: CLz/F (converted)",206 mL/min/kg
same,Vd/F,"[1]; 15 mg/kg, HAF extract, high dose (15.0 mg/kg as AA I), analyte dose mg/kg: AA I 15.0, AA II 1.29, AA C 7.66, AA D 7.56, 7-OH AA I 12.41, n = 6, read-out: Vz/F",47.9 L/kg
same,half-life,"[1]; 15 mg/kg, HAF extract, high dose (15.0 mg/kg as AA I), analyte dose mg/kg: AA I 15.0, AA II 1.29, AA C 7.66, AA D 7.56, 7-OH AA I 12.41, n = 6, read-out: t 1/2z (converted)",144 min
same,Short-term stability (RSD/%),[2]; [9],8.6%
same,Short-term stability (RSD/%),[2]; [10],5.0%
same,Short-term stability (RSD/%),[2]; [11],11.7%
same,Post-preparation stability (RSD/%),[2]; [9],2.8%
same,Post-preparation stability (RSD/%),[2]; [10],4.5%
same,Post-preparation stability (RSD/%),[2]; [11],3.1%
same,Long-term stability (RSD/%),[2]; [9],12.7%
same,Long-term stability (RSD/%),[2]; [10],5.2%
same,Long-term stability (RSD/%),[2]; [11],2.5%
same,Freeze-thaw stability (RSD/%),[2]; [9],14.3%
same,Freeze-thaw stability (RSD/%),[2]; [10],4.8%
same,Freeze-thaw stability (RSD/%),[2]; [11],8.4%
